Experimental data reported in publication PMC12248599, “Exploring the Bioavailability of Red Grape Skin Extract Polyphenols: A Caco-2 Cell Model Study” (Foods, 2025).
Values joined by “and” are separate entries in the source; they are usually repeats but may differ in a detail not shown here. Identical values can stand only once. Marks after values point to notes of the source that are not given here.

Assays:
[1] = Caco-2 monolayer transport (bioavailability) study, AB and BA directions; format: in vitro ADME, Homo sapiens; conditions: human; for efflux ratio at 180 min, 15 mg/mL / efflux ratio at 180 min, 22 mg/mL: Caco-2, Papp (BA)/Papp (AB), read-out: ER (efflux ratio); for efflux ratio at 180 min, 15 mg/mL / Papp A→B at 180 min, 15 mg/mL / Papp B→A at 180 min, 15 mg/mL: S1 (15 mg/mL GSE); for efflux ratio at 180 min, 22 mg/mL / Papp A→B at 180 min, 22 mg/mL / Papp B→A at 180 min, 22 mg/mL: S2 (22 mg/mL GSE); for efflux ratio at 180 min: Caco-2, text statement, S1 and S2; for Papp A→B at 180 min, 15 mg/mL / Papp A→B at 180 min, 22 mg/mL / Papp B→A at 180 min, 15 mg/mL / Papp B→A at 180 min, 22 mg/mL: Caco-2; for Papp A→B at 180 min, 15 mg/mL / Papp A→B at 180 min, 22 mg/mL: apical to basolateral; for Papp B→A at 180 min, 15 mg/mL / Papp B→A at 180 min, 22 mg/mL: basolateral to apical
How it was run: (§1)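 Grape skin extract in HBSS (15 or 22 mg/mL) applied to 21-day Caco-2 monolayers (TEER ≥300 Ω cm²) in AB and BA directions; acceptor samples quantified per polyphenol by HPLC-UV. Papp from steady-state flux over 1.12 cm², efflux ratio as Papp(BA)/Papp(AB), plus transport efficiency (C/C0).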

Caco-2 cell monolayer = assay: as above; format: in vitro ADME, Homo sapiens; conditions: for reduction in concentration on the apical (donor) side / reduction in concentration on the basolateral (donor) side: 0 to 180 min; for TE (%) transport efficiency: after 180 min
How it was run: as §1

[2] = AB experiment, S1 (15 mg/mL GSE)
[3] = AB experiment, S2 (22 mg/mL GSE)
[4] = AB experiment, acceptor side, S1 (15 mg/mL GSE)
[5] = AB experiment, acceptor side, S2 (22 mg/mL GSE)
[6] = AB experiment, donor side, S1 (15 mg/mL GSE)
[7] = AB experiment, donor side, S2 (22 mg/mL GSE)
[8] = AB experiments, basolateral side
[9] = BA experiment, S1 (15 mg/mL GSE)
[10] = BA experiment, S2 (22 mg/mL GSE)
[11] = BA experiment, acceptor side, S1 (15 mg/mL GSE)
[12] = BA experiment, acceptor side, S2 (22 mg/mL GSE)
[13] = BA experiment, donor side, S1 (15 mg/mL GSE)
[14] = BA experiment, donor side, S2 (22 mg/mL GSE)

With `O=c1c(O[C@@H]2O[C@H](CO)[C@@H](O)[C@H](O)[C@H]2O)c(-c2ccc(O)cc2)oc2cc(O)cc(O)c12` [K3G, kaempferol-3-glucoside] the efflux ratio at 180 min, 15 mg/mL [1] was 1.1, the efflux ratio at 180 min, 22 mg/mL [1] was 1.3 and the efflux ratio at 180 min [1] was over 1. The Papp A→B at 180 min, 15 mg/mL [1] was 1160 ± 20 ×10⁻⁶ cm/s, the Papp A→B at 180 min, 22 mg/mL [1] was 730 ± 40 ×10⁻⁶ cm/s and the Papp B→A at 180 min, 15 mg/mL [1] was 1230 ± 30 ×10⁻⁶ cm/s. For the same compound, the Papp B→A at 180 min, 22 mg/mL [1] was 970 ± 30 ×10⁻⁶ cm/s, the “reduction in concentration on the apical (donor) side” value (Caco-2 cell monolayer; [2]) was 33.6 ± 0.5% and the “TE (%) transport efficiency” value (Caco-2 cell monolayer; [2]) was 97 ± 2%. The “reduction in concentration on the apical (donor) side” value (Caco-2 cell monolayer; [3]) was 28.7 ± 0.9%, the “TE (%) transport efficiency” value (Caco-2 cell monolayer; [3]) was 60 ± 1% and 60.2 ± 0.9% and the “Basolateral Side 75 min” value (Caco-2 cell monolayer; [4]) was 6.2 ± 0.1 ^b mg/L. The “Basolateral Side 90 min” value (Caco-2 cell monolayer; [4]) was 6.7 ± 0.1 ^c mg/L, the “Basolateral Side 115 min” value (Caco-2 cell monolayer; [4]) was 7.1 ± 0.1 ^c mg/L and the “Basolateral Side 180 min” value (Caco-2 cell monolayer; [4]) was 7.4 ± 0.1 ^c mg/L. For the same compound, the “Basolateral Side 75 min” value (Caco-2 cell monolayer; [5]) was 6.4 ± 0.1 ^b mg/L, the “Basolateral Side 90 min” value (Caco-2 cell monolayer; [5]) was 6.8 ± 0.2 ^c mg/L and the “Basolateral Side 115 min” value (Caco-2 cell monolayer; [5]) was 7.2 ± 0.2 ^d,c mg/L. For the same compound, the “Basolateral Side 180 min” value (Caco-2 cell monolayer; [5]) was 7.6 ± 0.2 ^c mg/L, the “Apical Side 0 min” value (Caco-2 cell monolayer; [6]) was 7.7 ± 0.3 mg/L and 7.7 ± 0.3 ^a mg/L and the “Apical Side 75 min” value (Caco-2 cell monolayer; [6]) was 7.1 ± 0.2 ^b mg/L. For the same compound, the “Apical Side 90 min” value (Caco-2 cell monolayer; [6]) was 6.7 ± 0.2 ^b,c mg/L, the “Apical Side 115 min” value (Caco-2 cell monolayer; [6]) was 6.4 ± 0.2 ^c mg/L and the “Apical Side 180 min” value (Caco-2 cell monolayer; [6]) was 5.0 ± 0.2 mg/L and 5.1 ± 0.2 ^d mg/L. For the same compound, the “Apical Side 0 min” value (Caco-2 cell monolayer; [7]) was 12.7 ± 0.3 mg/L and 12.7 ± 0.3 ^a mg/L, the “Apical Side 75 min” value (Caco-2 cell monolayer; [7]) was 11.8 ± 0.3 ^b mg/L and the “Apical Side 90 min” value (Caco-2 cell monolayer; [7]) was 11.3 ± 0.3 ^b,c mg/L. For the same compound, the “Apical Side 115 min” value (Caco-2 cell monolayer; [7]) was 10.6 ± 0.23 ^c mg/L, the “Apical Side 180 min” value (Caco-2 cell monolayer; [7]) was 9.0 ± 0.2 mg/L and 9.0 ± 0.2 ^d mg/L and the “detection at the acceptor side” value (Caco-2 cell monolayer; [8]) was “detected”. The “TE (%) transport efficiency” value (Caco-2 cell monolayer; [9]) was 130 ± 3%, the “TE (%) transport efficiency” value (Caco-2 cell monolayer; [10]) was 109.0 ± 0.9% and the “Apical Side 75 min” value (Caco-2 cell monolayer; [11]) was 6.1 ± 0.3 ^b mg/L. For the same compound, the “Apical Side 90 min” value (Caco-2 cell monolayer; [11]) was 7.4 ± 0.3 ^c mg/L, the “Apical Side 115 min” value (Caco-2 cell monolayer; [11]) was 8.7 ± 0.4 ^d mg/L and the “Apical Side 180 min” value (Caco-2 cell monolayer; [11]) was 9.9 ± 0.4 ^c mg/L. For the same compound, the “Apical Side 75 min” value (Caco-2 cell monolayer; [12]) was 6.8 ± 0.2 ^a,b mg/L, the “Apical Side 90 min” value (Caco-2 cell monolayer; [12]) was 8.1 ± 0.2 ^b,c mg/L and the “Apical Side 115 min” value (Caco-2 cell monolayer; [12]) was 9.4 ± 0.3 ^c,d mg/L. For the same compound, the “Apical Side 180 min” value (Caco-2 cell monolayer; [12]) was 10.6 ± 0.3 ^c mg/L, the “Basolateral Side 0 min” value (Caco-2 cell monolayer; [13]) was 7.6 ± 0.2 ^a mg/L and the “Basolateral Side 75 min” value (Caco-2 cell monolayer; [13]) was 7.2 ± 0.2 ^b mg/L. For the same compound, the “Basolateral Side 90 min” value (Caco-2 cell monolayer; [13]) was 6.9 ± 0.2 ^c mg/L, the “Basolateral Side 115 min” value (Caco-2 cell monolayer; [13]) was 6.6 ± 0.1 ^d mg/L and the “Basolateral Side 180 min” value (Caco-2 cell monolayer; [13]) was 6.1 ± 0.1 ^c mg/L. For the same compound, the “Basolateral Side 0 min” value (Caco-2 cell monolayer; [14]) was 9.8 ± 0.2 ^a mg/L, the “Basolateral Side 75 min” value (Caco-2 cell monolayer; [14]) was 9.5 ± 0.2 ^b mg/L and the “Basolateral Side 90 min” value (Caco-2 cell monolayer; [14]) was 9.3 ± 0.2 ^c mg/L. The “Basolateral Side 115 min” value (Caco-2 cell monolayer; [14]) was 9.1 ± 0.2 ^d mg/L, the “Basolateral Side 180 min” value (Caco-2 cell monolayer; [14]) was 8.5 ± 0.2 ^c mg/L and the “detection at the acceptor side” value (Caco-2 cell monolayer; BA experiments, apical side) was “detected”.

Work on `O=C(/C=C/c1ccc(O)c(O)c1)O[C@@H](C(=O)O)[C@@H](O)C(=O)O` [CA, caftaric acid] yielded an efflux ratio at 180 min, 15 mg/mL [1] of 1.3, an efflux ratio at 180 min, 22 mg/mL [1] of 1.4 and an efflux ratio at 180 min [1] of over 1. The Papp A→B at 180 min, 15 mg/mL [1] was 74 ± 3 ×10⁻⁶ cm/s, the Papp A→B at 180 min, 22 mg/mL [1] was 51 ± 2 ×10⁻⁶ cm/s and the Papp B→A at 180 min, 15 mg/mL [1] was 93 ± 7 ×10⁻⁶ cm/s. The Papp B→A at 180 min, 22 mg/mL [1] was 73 ± 8 ×10⁻⁶ cm/s, the “reduction in concentration on the apical (donor) side” value (Caco-2 cell monolayer; [2]) was 59 ± 4% and the “TE (%) transport efficiency” value (Caco-2 cell monolayer; [2]) was 7 ± 1%. The “reduction in concentration on the apical (donor) side” value (Caco-2 cell monolayer; [3]) was 44.1 ± 0.7%, the “TE (%) transport efficiency” value (Caco-2 cell monolayer; [3]) was 4.4 ± 0.5% and 4.4 ± 0.4% and the “Basolateral Side 75 min” value (Caco-2 cell monolayer; [4]) was 0.06 ± 0.01 ^b mg/L. For the same compound, the “Basolateral Side 90 min” value (Caco-2 cell monolayer; [4]) was 0.06 ± 0.01 ^b,c mg/L, the “Basolateral Side 115 min” value (Caco-2 cell monolayer; [4]) was 0.06 ± 0.01 ^b,c mg/L and the “Basolateral Side 180 min” value (Caco-2 cell monolayer; [4]) was 0.07 ± 0.01 ^c mg/L. The “Basolateral Side 75 min” value (Caco-2 cell monolayer; [5]) was 0.07 ± 0.01 ^b mg/L, the “Basolateral Side 90 min” value (Caco-2 cell monolayer; [5]) was 0.07 ± 0.01 ^b,c mg/L and the “Basolateral Side 115 min” value (Caco-2 cell monolayer; [5]) was 0.08 ± 0.01 ^b mg/L. The “Basolateral Side 180 min” value (Caco-2 cell monolayer; [5]) was 0.08 ± 0.01 ^b mg/L, the “Apical Side 0 min” value (Caco-2 cell monolayer; [6]) was 1.04 ± 0.08 mg/L and 1.04 ± 0.08 ^a mg/L and the “Apical Side 75 min” value (Caco-2 cell monolayer; [6]) was 0.84 ± 0.07 ^b mg/L. The “Apical Side 90 min” value (Caco-2 cell monolayer; [6]) was 0.67 ± 0.07 ^c mg/L, the “Apical Side 115 min” value (Caco-2 cell monolayer; [6]) was 0.54 ± 0.07 ^d mg/L and the “Apical Side 180 min” value (Caco-2 cell monolayer; [6]) was 0.43 ± 0.07 mg/L and 0.43 ± 0.07 ^d mg/L. For the same compound, the “Apical Side 0 min” value (Caco-2 cell monolayer; [7]) was 1.82 ± 0.03 mg/L and 1.82 ± 0.03 ^a mg/L, the “Apical Side 75 min” value (Caco-2 cell monolayer; [7]) was 1.54 ± 0.03 ^b mg/L and the “Apical Side 90 min” value (Caco-2 cell monolayer; [7]) was 1.37 ± 0.02 ^c mg/L. For the same compound, the “Apical Side 115 min” value (Caco-2 cell monolayer; [7]) was 1.16 ± 0.02 ^d mg/L, the “Apical Side 180 min” value (Caco-2 cell monolayer; [7]) was 1.01 ± 0.01 mg/L and 1.01 ± 0.01 ^c mg/L and the “detection at the acceptor side” value (Caco-2 cell monolayer; [8]) was “detected”. The “reduction in concentration on the basolateral (donor) side” value (Caco-2 cell monolayer; [9]) was 43.5 ± 0.4%, the “TE (%) transport efficiency” value (Caco-2 cell monolayer; [9]) was 11.2 ± 0.8% and the “reduction in concentration on the basolateral (donor) side” value (Caco-2 cell monolayer; [10]) was 22.6 ± 0.8%. For the same compound, the “TE (%) transport efficiency” value (Caco-2 cell monolayer; [10]) was 8.7 ± 0.9%, the “Apical Side 75 min” value (Caco-2 cell monolayer; [11]) was 0.08 ± 0.01 ^b mg/L and the “Apical Side 90 min” value (Caco-2 cell monolayer; [11]) was 0.09 ± 0.01 ^c mg/L. For the same compound, the “Apical Side 115 min” value (Caco-2 cell monolayer; [11]) was 0.10 ± 0.01 ^d mg/L, the “Apical Side 180 min” value (Caco-2 cell monolayer; [11]) was 0.12 ± 0.01 ^c mg/L and the “Apical Side 75 min” value (Caco-2 cell monolayer; [12]) was 0.08 ± 0.01 ^a,b mg/L. The “Apical Side 90 min” value (Caco-2 cell monolayer; [12]) was 0.10 ± 0.01 ^a,b,c mg/L, the “Apical Side 115 min” value (Caco-2 cell monolayer; [12]) was 0.11 ± 0.01 ^b,c mg/L and the “Apical Side 180 min” value (Caco-2 cell monolayer; [12]) was 0.12 ± 0.01 ^c mg/L. For the same compound, the “Basolateral Side 0 min” value (Caco-2 cell monolayer; [13]) was 1.04 ± 0.03 ^a mg/L, the “Basolateral Side 75 min” value (Caco-2 cell monolayer; [13]) was 0.91 ± 0.02 ^b mg/L and the “Basolateral Side 90 min” value (Caco-2 cell monolayer; [13]) was 0.80 ± 0.02 ^c mg/L. The “Basolateral Side 115 min” value (Caco-2 cell monolayer; [13]) was 0.70 ± 0.02 ^c,d mg/L, the “Basolateral Side 180 min” value (Caco-2 cell monolayer; [13]) was 0.59 ± 0.02 ^c mg/L and the “Basolateral Side 0 min” value (Caco-2 cell monolayer; [14]) was 1.4 ± 0.1 ^a mg/L. The “Basolateral Side 75 min” value (Caco-2 cell monolayer; [14]) was 1.3 ± 0.1 ^b mg/L, the “Basolateral Side 90 min” value (Caco-2 cell monolayer; [14]) was 1.23 ± 0.09 ^c mg/L and the “Basolateral Side 115 min” value (Caco-2 cell monolayer; [14]) was 1.15 ± 0.08 ^d mg/L. For the same compound, the “Basolateral Side 180 min” value (Caco-2 cell monolayer; [14]) was 1.08 ± 0.08 ^c mg/L.
